Results published in patent US20220281848A1, “PYRAZOLE-SUBSTITUTED PYRROLIDINONES AS HERBICIDES” (FMC Corporation, priority 2019, published 2022).

Test system: plants
Test: Test D post-emergence, other plants of Tables D2 and D4
Type: in vivo
Details: for STEME damage rating (100=total damage to plant; 0=no damage to plant) / VERPE damage rating (100=total damage to plant; 0=no damage to plant): "Cereals" Postemergent, evaluated after 15 d; for damage to plant (100=total damage to plant; 0=no damage to plant), ABUTH / damage to plant (100=total damage to plant; 0=no damage to plant), AMARE / damage to plant (100=total damage to plant; 0=no damage to plant), BIDPI / damage to plant (100=total damage to plant; 0=no damage to plant), BRAPL / damage to plant (100=total damage to plant; 0=no damage to plant), CYPES / damage to plant (100=total damage to plant; 0=no damage to plant), DIGSA / damage to plant (100=total damage to plant; 0=no damage to plant), ECHCG / damage to plant (100=total damage to plant; 0=no damage to plant), ELEIN / damage to plant (100=total damage to plant; 0=no damage to plant), EPHHL / damage to plant (100=total damage to plant; 0=no damage to plant), GLXMA / damage to plant (100=total damage to plant; 0=no damage to plant), IPOHE / damage to plant (100=total damage to plant; 0=no damage to plant), ORYSA / damage to plant (100=total damage to plant; 0=no damage to plant), PANMI / damage to plant (100=total damage to plant; 0=no damage to plant), SETFA / damage to plant (100=total damage to plant; 0=no damage to plant), SORVU: post-emergence
In short: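 Damage was rated visually from 0 (none) to 100 (total), at 20 DAA for pre-emergence and 15 d for post-emergence. Plants grew from safener-treated seed in a glasshouse at 24/18° C. or 20/16° C. day/night, 65% humidity, watered twice daily.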

CN1CC(c2cc(C(F)(F)F)n(C)n2)C(C(=O)Nc2cccc(F)n2)C1=O (racemic) [Compound 24]
50: damage to plant (100=total damage to plant; 0=no damage to plant), BRAPL (rate 500, evaluated after 15 d)
10: damage to plant (100=total damage to plant; 0=no damage to plant), ABUTH (rate 500, evaluated after 15 d) | damage to plant (100=total damage to plant; 0=no damage to plant), CYPES (rate 500, evaluated after 15 d) | damage to plant (100=total damage to plant; 0=no damage to plant), GLXMA (rate 500, evaluated after 15 d) | damage to plant (100=total damage to plant; 0=no damage to plant), IPOHE (rate 500, evaluated after 15 d) | damage to plant (100=total damage to plant; 0=no damage to plant), ORYSA (rate 500, evaluated after 15 d) | damage to plant (100=total damage to plant; 0=no damage to plant), PANMI (rate 500, evaluated after 15 d) | damage to plant (100=total damage to plant; 0=no damage to plant), SETFA (rate 500, evaluated after 15 d)
40: damage to plant (100=total damage to plant; 0=no damage to plant), BRAPL (rate 250, evaluated after 15 d)
20: VERPE damage rating (100=total damage to plant; 0=no damage to plant) (Rates 500) | damage to plant (100=total damage to plant; 0=no damage to plant), EPHHL (rate 500, evaluated after 15 d)
0: STEME damage rating (100=total damage to plant; 0=no damage to plant) (Rates 130) | STEME damage rating (100=total damage to plant; 0=no damage to plant) (Rates 250) | STEME damage rating (100=total damage to plant; 0=no damage to plant) (Rates 500) | VERPE damage rating (100=total damage to plant; 0=no damage to plant) (Rates 130) | VERPE damage rating (100=total damage to plant; 0=no damage to plant) (Rates 250) | damage to plant (100=total damage to plant; 0=no damage to plant), ABUTH (rate 130, evaluated after 15 d) | damage to plant (100=total damage to plant; 0=no damage to plant), ABUTH (rate 250, evaluated after 15 d) | damage to plant (100=total damage to plant; 0=no damage to plant), AMARE (rate 130, evaluated after 15 d) | damage to plant (100=total damage to plant; 0=no damage to plant), AMARE (rate 250, evaluated after 15 d) | damage to plant (100=total damage to plant; 0=no damage to plant), AMARE (rate 500, evaluated after 15 d) | damage to plant (100=total damage to plant; 0=no damage to plant), BIDPI (rate 130, evaluated after 15 d) | damage to plant (100=total damage to plant; 0=no damage to plant), BIDPI (rate 250, evaluated after 15 d) | damage to plant (100=total damage to plant; 0=no damage to plant), BIDPI (rate 500, evaluated after 15 d) | damage to plant (100=total damage to plant; 0=no damage to plant), BRAPL (rate 130, evaluated after 15 d) | damage to plant (100=total damage to plant; 0=no damage to plant), CYPES (rate 130, evaluated after 15 d) | damage to plant (100=total damage to plant; 0=no damage to plant), CYPES (rate 250, evaluated after 15 d) | damage to plant (100=total damage to plant; 0=no damage to plant), DIGSA (rate 130, evaluated after 15 d) | damage to plant (100=total damage to plant; 0=no damage to plant), DIGSA (rate 250, evaluated after 15 d) | damage to plant (100=total damage to plant; 0=no damage to plant), DIGSA (rate 500, evaluated after 15 d) | damage to plant (100=total damage to plant; 0=no damage to plant), ECHCG (rate 130, evaluated after 15 d) | damage to plant (100=total damage to plant; 0=no damage to plant), ECHCG (rate 250, evaluated after 15 d) | damage to plant (100=total damage to plant; 0=no damage to plant), ECHCG (rate 500, evaluated after 15 d) | damage to plant (100=total damage to plant; 0=no damage to plant), ELEIN (rate 130, evaluated after 15 d) | damage to plant (100=total damage to plant; 0=no damage to plant), ELEIN (rate 250, evaluated after 15 d) | damage to plant (100=total damage to plant; 0=no damage to plant), ELEIN (rate 500, evaluated after 15 d) | damage to plant (100=total damage to plant; 0=no damage to plant), EPHHL (rate 130, evaluated after 15 d) | damage to plant (100=total damage to plant; 0=no damage to plant), EPHHL (rate 250, evaluated after 15 d) | damage to plant (100=total damage to plant; 0=no damage to plant), GLXMA (rate 130, evaluated after 15 d) | damage to plant (100=total damage to plant; 0=no damage to plant), GLXMA (rate 250, evaluated after 15 d) | damage to plant (100=total damage to plant; 0=no damage to plant), IPOHE (rate 130, evaluated after 15 d) | damage to plant (100=total damage to plant; 0=no damage to plant), IPOHE (rate 250, evaluated after 15 d) | damage to plant (100=total damage to plant; 0=no damage to plant), ORYSA (rate 130, evaluated after 15 d) | damage to plant (100=total damage to plant; 0=no damage to plant), ORYSA (rate 250, evaluated after 15 d) | damage to plant (100=total damage to plant; 0=no damage to plant), PANMI (rate 130, evaluated after 15 d) | damage to plant (100=total damage to plant; 0=no damage to plant), PANMI (rate 250, evaluated after 15 d) | damage to plant (100=total damage to plant; 0=no damage to plant), SETFA (rate 130, evaluated after 15 d) | damage to plant (100=total damage to plant; 0=no damage to plant), SETFA (rate 250, evaluated after 15 d) | damage to plant (100=total damage to plant; 0=no damage to plant), SORVU (rate 130, evaluated after 15 d) | damage to plant (100=total damage to plant; 0=no damage to plant), SORVU (rate 250, evaluated after 15 d) | damage to plant (100=total damage to plant; 0=no damage to plant), SORVU (rate 500, evaluated after 15 d)
